What was measured:
Assay type in all cases: biochemical
Cathepsin S = Cathepsin S (Homo sapiens, UniProt P25774); assay: Cathepsin S inhibition assay (fluorogenic peptide substrate); settings: Cathepsin S inhibition constant; pH5.5; read-out: Ki Cat. S
Description: “Inhibition constant”, Ki, is the dissociation constant of the enzyme-inhibitor complex, or the reciprocal of the binding affinity of the inhibitor to the enzyme. For classical inhibition the value of Ki is much greater than the enzyme concentration and the Ki can be measured by monitoring the rate of reaction for a competitive substrate at multiple inhibitor concentrations. The inhibited rates are then fit by nonlinear regression to the following equation: […]
The assumption being made for the classical inhibition described above is that the free inhibitor concentration is equal to the total inhibitor concentration. For inhibitors that have Ki's that are approximately equal to the enzyme concentration [E], the assumption that the free inhibitor concentration is equal to the total inhibitor concentration is no longer valid and an alternative equation has to be fit for determination of the apparent inhibition constant, Ki^app using described methods (Kuzmic, P., K. C. Elrod, et al., Anal Biochem 2000, 286(1), 45-50):
(§1) The optimal substrate for cathepsin S, acetyl-histidine-proline-valine-lysine-amino carbamoyl coumarin, was identified from screening a combinatorial library of fluorogenic peptide substrates (Harris, J. L., B. J. Backes, et al., Proc Natl Acad Sci U S A 2000, 97(14), 7754-9). Kinetic measurements are performed in a total reaction volume of 30 μl in 384-well microtiter plates. Cathepsin S, at a final concentration of 0.3-3 nM (active site), is incubated with the compounds at twelve varying concentrations in a buffer containing 100 mM NaAc (pH5.5), 1 mM EDTA, 100 mM NaCl, 0.01% Brij-35 for 20 minutes at room temperature. Control reactions in the absence of inhibitor are performed in replicates of 24. The reactions are initiated by adding the substrate, acetyl-histidine-proline-valine-lysine-amino carbamoyl coumarin, to a final concentration of 50 μM. The rate of substrate hydrolysis is measured by monitoring the increase in fluorescence at an excitation wavelength of 380 nm and an emission wavelength of 450 nm that results from cleavage of the aniline bond in the substrate by the enzyme. The apparent inhibition constants for the compounds are determined from the enzyme progress curves (Kuzmic, P., K. C. Elrod, et al., Anal Biochem 2000, 286(1), 45-50) and are then used to calculate the inhibition constants for competitive inhibitors.

Cathepsin K = target: T1, Cathepsin K (Homo sapiens, UniProt P43235); assay: Cathepsin K inhibition assay, selectivity for cathepsin S over cathepsin K; settings: ratio of cathepsin K inhibition constant to cathepsin S inhibition constant
T1 sequence (P43235 115-329): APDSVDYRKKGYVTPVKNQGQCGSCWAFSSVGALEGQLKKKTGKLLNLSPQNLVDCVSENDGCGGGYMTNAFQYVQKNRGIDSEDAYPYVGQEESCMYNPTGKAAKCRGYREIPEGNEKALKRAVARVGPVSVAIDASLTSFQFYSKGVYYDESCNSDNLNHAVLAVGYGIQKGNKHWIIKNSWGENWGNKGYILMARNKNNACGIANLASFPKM
Procedure: as §1, with “cathepsin K, acetyl-lysine-histidine-proline-lysine-amino” for “cathepsin S, acetyl-histidine-proline-valine-lysine-amino”, “Sci USA” for “Sci U S A”, “Cathepsin K,” for “Cathepsin S,”, “of 3.5” for “of 0.3-3”, “substrate, acetyl-lysine-histidine-proline-lysine-amino” for “substrate, acetyl-histidine-proline-valine-lysine-amino”, “of 40” for “of 50”
(§2) Selectivity for cathepsin S in the presence of cathepsin isozymes was determined by the ratio of the cathepsin isozyme inhibition constant of a compound of the present invention to the cathepsin S inhibition constant of the same compound. Preferred compounds of the present invention selective for cathepsin S have ratios of greater than 10. More preferred compounds of the present invention selective for cathepsin S have ratios of greater than 100. Most preferred compounds of the present invention selective for cathepsin S have ratios of greater than 1000.

Cathepsin L = Cathepsin L (Homo sapiens, UniProt P07711); assay: Cathepsin L inhibition assay, selectivity for cathepsin S over cathepsin L; settings: ratio of cathepsin L inhibition constant to cathepsin S inhibition constant
Chain of Cathepsin L (P07711 114-333, species assumed): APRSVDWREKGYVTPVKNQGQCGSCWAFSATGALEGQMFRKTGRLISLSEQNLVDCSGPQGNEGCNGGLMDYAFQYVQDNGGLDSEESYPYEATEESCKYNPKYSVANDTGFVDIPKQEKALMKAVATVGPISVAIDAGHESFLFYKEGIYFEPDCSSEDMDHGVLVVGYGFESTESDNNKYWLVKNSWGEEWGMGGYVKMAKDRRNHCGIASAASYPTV
Procedure: The optimal substrate for cathepsin L, acetyl-histidine-lysine-phenylalanine-lysine-amino carbamoyl coumarin, was identified from screening a combinatorial library of fluorogenic peptide substrates (Harris, J. L., B. J. Backes, et al.; Proc Natl Acad Sci USA 2000, 97(14), 7754-9). Kinetic measurements are performed in a total reaction volume of 30 μl in 384-well microtiter plates. Cathepsin L, at a final concentration of 0.1 nM (active site), is incubated with the compounds at twelve varying concentrations in a buffer containing 100 mM NaAc (pH5.5), 1 mM EDTA, 100 mM NaCl, 0.01% Brij-35 for 20 minutes at room temperature. Control reactions in the absence of inhibitor are performed in replicates of 24. The reactions are initiated by adding the substrate, acetyl-histidine-lysine-phenylalanine-lysine-amino carbamoyl coumarin, to a final concentration of 20 μM. The rate of substrate hydrolysis is measured by monitoring the increase in fluorescence at an excitation wavelength of 380 nm and an emission wavelength of 450 nm that results from cleavage of the aniline bond in the substrate by the enzyme. The apparent inhibition constants for the compounds are determined from the enzyme progress curves (Kuzmic, P., K. C. Elrod, et al., Anal Biochem 2000, 286(1), 45-50) and are then used to calculate the inhibition constants for competitive inhibitors.
as §2

Cathepsin B = Cathepsin B (Homo sapiens, UniProt P07858); assay: Cathepsin B inhibition assay, selectivity for cathepsin S over cathepsin B; settings: ratio of cathepsin B inhibition constant to cathepsin S inhibition constant
Procedure: as §1, with “cathepsin B,” for “cathepsin S,”, “Sci US” for “Sci U S”, “Cathepsin B,” for “Cathepsin S,”, “of 1.5” for “of 0.3-3”, “of 10” for “of 50”
as §2

Chain of Cathepsin S (P25774 115-331, species assumed): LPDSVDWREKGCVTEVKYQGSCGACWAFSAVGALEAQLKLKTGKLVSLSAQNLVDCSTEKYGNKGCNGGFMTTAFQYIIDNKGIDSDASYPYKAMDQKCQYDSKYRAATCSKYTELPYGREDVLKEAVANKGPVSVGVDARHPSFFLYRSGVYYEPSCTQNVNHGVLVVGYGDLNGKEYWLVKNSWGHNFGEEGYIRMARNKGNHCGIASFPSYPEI

SMILES: O=C1CC(NC(=O)C(CC2CCCC2)NC(=O)c2ccc(-c3cccc(F)c3)o2)C(OC2CCCC2)O1 [Example 26, (3S)-[3-Cyclopentyl-(2S)-{[5-(3-fluoro-phenyl)-furan-2-carbonyl]-amino}propionylamino]-2-cyclopentoxy-5-oxo-tetrahydrofuran]
- Ki (Cathepsin S): < 100 nM
- Selectivity for Cat. S over Cat. K (Cathepsin K): + (+, >10)
- Selectivity for Cat. S over Cat. L (Cathepsin L): +++ (+++, >1000)
- Selectivity for Cat. S over Cat. B (Cathepsin B): +++ (+++, >1000)
